Like-named read-outs stand apart in the source and are kept apart here.
Columns and labels:
[1] = acute toxicity (LD50, mice); details: mouse, in vivo, 14 days
Protocol: The acute toxicity of the products was investigated in male SWISS/IOPS mice weighing approximately 22 g. The 50% lethal dose (LD50) was calculated by the method of L. J. REED and H. MUNCH (Am. J. Hyg. 1939-37-493) 14 days following the […] treatment of batches of 10 animals per dose and on the basis of 4 to 6 doses per product. The results of this investigation are given in table 3 for the products of examples 1 to 8 and in table 4 for the products of examples 9 to 12.

gastric mucosa = assay: cytoprotection test, gastric ulceration caused by absolute ethanol; type: in vivo, Sprague Dawley rats; details: rat; for ED50 values relative to the two routes compared: oral versus parenteral (s.c.) route
Protocol: The cytoprotective activity was investigated in connection with the stressing of the gastric mucosa caused by ethanol.
The cytoprotection test was carried out in accordance with the procedure described by A. ROBERT et al (Gastroenterology 1979-77-433). Batches of six male Sprague Dawley rats, which had not received solid food for 24 hours before the test, received by the oral route 1 ml/rat of absolute ethanol, after receiving the product to be tested 30 minutes beforehand by the subcutaneous […] 1 hour beforehand by the oral route. One hour after ingesting the ethanol, the rats were killed by stretching and their stomachs were carefully removed, opened along the greater curvature, washed under running water and spread out. The ulcerations were then marked and measured under a binocular lamp. An index representing the sum of the lengths of the ulcers is then determined for each rat and the mean value of these indexes for each batch is calculated and compared with that of the control batch using the Student "t" test. The 50% effective dose (ED50) is then graphically determined when possible. In other cases, the percentage inhibition obtained with the aid of the maximum tested dose is given. The results are given in table 5 for the products of examples 1 to 8 and in table 6 for the products of examples 9 to 12.

thromboxane synthetase [2] = molecular target: T1, thromboxane synthetase (Oryctolagus cuniculus, UniProt G1TAZ9); assay: inhibition of TXB2 synthesis (thromboxane synthetase) in washed rabbit platelets; type: cell-based; details: for activity relative to 1-benzyl imidazole: reference 1-benzyl imidazole
T1 construct: carried out in vitro on washed rabbit platelets; endogenous in cells; host or cells: washed rabbit platelets
T1 sequence (G1TAZ9 1-530): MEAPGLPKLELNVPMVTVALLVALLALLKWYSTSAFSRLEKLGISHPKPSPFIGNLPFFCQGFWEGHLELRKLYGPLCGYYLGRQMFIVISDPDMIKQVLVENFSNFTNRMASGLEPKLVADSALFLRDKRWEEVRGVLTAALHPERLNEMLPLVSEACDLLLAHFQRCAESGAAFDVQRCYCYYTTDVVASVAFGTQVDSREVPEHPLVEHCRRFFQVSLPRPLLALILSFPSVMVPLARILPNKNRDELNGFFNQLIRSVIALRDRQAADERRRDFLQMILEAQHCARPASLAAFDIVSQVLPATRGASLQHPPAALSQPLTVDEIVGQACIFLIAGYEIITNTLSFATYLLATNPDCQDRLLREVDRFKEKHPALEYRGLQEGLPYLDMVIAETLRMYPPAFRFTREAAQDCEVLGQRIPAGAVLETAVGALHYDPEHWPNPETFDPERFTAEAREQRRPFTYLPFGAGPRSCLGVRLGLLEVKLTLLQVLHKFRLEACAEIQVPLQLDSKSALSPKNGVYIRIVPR
Protocol: (§1) The test performed was carried out in vitro on washed rabbit platelets. It was based on the publications of NEEDLEMAN (1977. Proc. Natl. Acad. Sci. 74, 1716) and SALMON (1982, Cardiovascular Pharmacol. of the Prostaglandins--Raven Press N.Y. pp. 7 to 22). It makes it possible both to determine the reduction of the synthesis of TXB2 and also the possible increase of the synthesis of PGE2. Thus, it is possible to determine the activity of the products on the PG:TX ratio.
(§2) The results given in the following tables are expressed in CEx%, i.e. in micromolar concentrations per liter permitting an inhibition by x% of the synthesis of TXB2. In the adjacent column, the symbol + means that the effect also causes an increase in the synthesis of PGE2.

synthesis of PGE2 = assay: increase of PGE2 synthesis in washed rabbit platelets; type: cell-based; design: key: +: the effect also causes an increase in the synthesis of PGE2; details: in vitro
Protocol: as §1, §2

thromboxane synthetase [3] = details: human platelets; literature; cited from earlier work
[4] = oral route, read-out: LD50 % oral route
[5] = sc, s.c. route, 30 minutes before absolute ethanol, read-out: ED50% s.c. route
[6] = washed rabbit platelets, in vitro, 50% inhibition of TXB2 synthesis, read-out: Inh. TX B2 CE50%
[7] = ip, read-out: LD50 % i.p. route
[8] = oral route, 1 hour before absolute ethanol, read-out: ED50% oral route

| SMILES | LD50 at 336 h [1, 4] [mg/kg] | ED50 (gastric mucosa; [5]) [mg/kg] | IC50 (thromboxane synthetase [2]; [6]) [µM] | Incr. PGE2 (synthesis of PGE2) | LD50 at 336 h [1, 7] [mg/kg] | other results |
| --- | --- | --- | --- | --- | --- | --- |
| CCC(Cn1ccnc1)(c1ccccc1)N(C)C (single isomer, unassigned) [EX. 12, 1-[(2-phenyl-2-ethyl)-2-N,N-dimethylaminoethyl]-imidazole] | 780 | 5.3 | 11.3 | + |  |  |
| c1ccc(Cn2ccnc2)cc1 [1-Benzyl-Imidazole, 1-benzyl imidazole, reference compound] |  |  |  |  |  | IC50 (thromboxane synthetase [2]): 13.4 µM; thromboxane synthetase inhibition in words (thromboxane synthetase [3]): thromboxane synthetase inhibitor |
| COc1ccc(CC(C)(Cn2ccnc2)N(C)C)cc1 (stereo not drawn) [EX. 9, 1-[(2-p-methoxybenzyl-2-methyl)-2-N,N-dimethylaminoethyl]imidazole dihemimaleate] | 758 |  | 4.5 | + | 231 | activity relative to 1-benzyl imidazole (thromboxane synthetase [2]; washed rabbit platelets): equal to clearly superior activity |
| CN(C)C(C)(COc1ccc(Cl)cc1)Cn1ccnc1 (stereo not drawn) [EX. 10] | 86 | 10 | 13.2 | + | 32 |  |
| CN(C)C(C)(Cn1ccnc1)c1ccc(-c2ccccc2)cc1 (stereo not drawn) [EX. 11] | 183 |  | 11.2 | + |  | ED40 (gastric mucosa; sc, s.c. route, 30 minutes before absolute ethanol): 10 mg/kg |
| CCC(Cn1ccnc1)(c1ccccc1)N(C)C (stereo not drawn) [Ex. 1A, 1-[(2-phenyl-2-ethyl)-2-N,N-dimethylaminoethyl]-imidazole] | 559 | 11 | 3.7 | + | 326 | ED50 (gastric mucosa; [8]): 13 mg/kg; ED50 values relative to the two routes compared (gastric mucosa): roughly equivalent; activity relative to 1-benzyl imidazole (thromboxane synthetase [2]; washed rabbit platelets): equal to clearly superior activity |
| CCC(CN(C)C)(c1ccccc1)n1ccnc1 (stereo not drawn) [Ex. 1B, 1-[(1-phenyl-1-ethyl)-2-N,N-dimethylaminoethyl]-imidazole] | 285 | 8.1 | 17.4 | + | 145 | ED50 (gastric mucosa; [8]): 7.1 mg/kg; ED50 values relative to the two routes compared (gastric mucosa): roughly equivalent |
| CCC(Cn1ccnc1C)(c1ccccc1)N(C)C (stereo not drawn) [Ex. 2A, 1-[(2-phenyl-2-ethyl)-2-N,N-dimethylaminoethyl]-2-methylimidazole] | 500 | 12.6 |  |  | 157 | ED50 (gastric mucosa; [8]): 12 mg/kg; ED50 values relative to the two routes compared (gastric mucosa): roughly equivalent; IC10 (thromboxane synthetase [2]; washed rabbit platelets, in vitro, 10% inhibition of TXB2 synthesis, read-out: Inh. TX B2 CE10%): 50 µM |
| CCC(CN(C)C)(c1ccccc1)n1ccnc1C (stereo not drawn) [Ex. 2B, 1-[(1-phenyl-1-ethyl)-2-N,N-dimethylaminoethyl]-2-methylimidazole] | 393 | 10 |  |  | 137 | ED50 (gastric mucosa; [8]): 12 mg/kg; ED50 values relative to the two routes compared (gastric mucosa): roughly equivalent; IC18 (thromboxane synthetase [2]; washed rabbit platelets, in vitro, 18% inhibition of TXB2 synthesis, read-out: Inh. TX B2 CE18%): 50 µM |
| CCC(Cn1cnc(-c2ccccc2)c1-c1ccccc1)(c1ccccc1)N(C)C (stereo not drawn) [Ex. 3A] | > 1150 |  |  |  |  |  |
| CCC(CN(C)C)(c1ccccc1)n1cnc(-c2ccccc2)c1-c1ccccc1 (stereo not drawn) [Ex. 3B] | > 1150 |  |  |  |  | ED50 (gastric mucosa; [8]): 26 mg/kg |
| CCc1nc(C)cn1C(CC)(CN(C)C)c1ccccc1 (stereo not drawn) [Ex. 4B] | 298 | 4 |  |  | 47 |  |
| CCC(Cn1ccnc1-c1ccccc1)(c1ccccc1)N(C)C (stereo not drawn) [Ex. 5A] |  |  | 50 |  |  |  |
| CCC(CN(C)C)(c1ccccc1)n1ccnc1-c1ccccc1 (stereo not drawn) [Ex. 5B] | 840 |  |  |  |  | IC20 (thromboxane synthetase [2]; washed rabbit platelets, in vitro, 20% inhibition of TXB2 synthesis, read-out: Inh. TX B2 CE20%): 50 µM |
| CN(C)C(C)(C)Cn1ccnc1 [Ex. 6A] | > 1180 |  |  |  |  | IC41 (thromboxane synthetase [2]; washed rabbit platelets, in vitro, 41% inhibition of TXB2 synthesis, read-out: Inh. TX B2 CE41%): 50 µM |
| CN(C)CC(C)(C)n1ccnc1 [Ex. 6B] | > 1180 |  | 50 |  |  |  |
| CCC(Cc1ccccc1)(Cn1ccnc1)N(C)C (stereo not drawn) [Ex. 7A] | 480 | 26.6 | < 1 | + |  |  |
| CCC(Cc1ccccc1)(CN(C)C)n1ccnc1 (stereo not drawn) [Ex. 7B] | 384 | 8.5 |  |  |  | IC35 (thromboxane synthetase [2]; washed rabbit platelets, in vitro, 35% inhibition of TXB2 synthesis, read-out: Inh. TX B2 CE35%): 100 µM |
| CCCCCC(Cn1ccnc1)(c1ccccc1)N(C)C (stereo not drawn) [Ex. 8A] | 287 | 25 | 0.56 | + |  | activity relative to 1-benzyl imidazole (thromboxane synthetase [2]; washed rabbit platelets): equal to clearly superior activity |
| CCCCCC(CN(C)C)(c1ccccc1)n1ccnc1 (stereo not drawn) [Ex. 8B] | 562 | 9 | 2.15 | + | 346 | activity relative to 1-benzyl imidazole (thromboxane synthetase [2]; washed rabbit platelets): equal to clearly superior activity |
